Patent US8188101B2 (AstraZeneca AB, priority 2008, dated 2012)

test system: Aβ42 release; test: Aβ release in cells stably expressing APPswe, Meso Scale Discovery electrochemiluminescence assay; format: cell-based, Human; details: HEK or SH-SY5Y cells stably expressing APPswe, 4-6 hours incubation with test compound
Procedure, shortened: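 HEK or SH-SY5Y cells stably expressing APPswe, plated 15-24 h, then exposed to compound (diluted ×200 into fresh medium) for 4-6 h at 37 °C. Secreted Aβ42 in medium quantified by Meso Scale Discovery electrochemiluminescence with specific antibodies; cytotoxicity checked by cellular ATP content.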

| pIC50 | SMILES |
| --- | --- |
| 6.6 | Cc1nccn1-c1ccc(Nc2nc3c(c(C(C)c4ccccc4)n2)CN(C)CC3)cc1 (single isomer, unassigned) [Example 71, 6-Methyl-N-(4-(2-methyl-1H-imidazol-1-yl)phenyl)-4-(1-phenylethyl)-5,6,7,8-tetrahydropyrido[4,3-d]pyrimidin-2-amine] |
| 6.2 | Cc1nccn1-c1ccc(Nc2nc3c(c(C(C)c4ccccc4)n2)CN(C)CC3)cc1 (single isomer, unassigned) [Example 70, 6-Methyl-N-(4-(2-methyl-1H-imidazol-1-yl)phenyl)-4-(1-phenylethyl)-5,6,7,8-tetrahydropyrido[4,3-d]pyrimidin-2-amine] |

same assay, conditions: Homo sapiens, SH-SY5Y, HEK or SH-SY5Y cells stably expressing APPswe, 4-6 hours incubation with test compound

| SMILES | IC50 [µM] |
| --- | --- |
| Cc1nccn1-c1ccc(Nc2nc3c(c(N(C)C4CCCCC4)n2)CN(C)CC3)cc1 [Example 11, N4-Cyclohexyl-N4,6-dimethyl-N2-(4-(2-methyl-1H-imidazol-1-yl)phenyl)-5,6,7,8-tetrahydropyrido[4,3-d]pyrimidine-2,4-diamine] | 0.398 |
| CCOC(=O)N1CCc2nc(Nc3ccc(-c4cnco4)cc3)nc(N(CCO)c3ccccc3)c2C1 [Example 24, Ethyl 4-((2-hydroxyethyl)(phenyl)amino)-2-(4-(oxazol-5-yl)phenylamino)-7,8-dihydropyrido[4,3-d]pyrimidine-6(5H)-carboxylate] | 0.251 |
| COC(=O)N1CCc2nc(Nc3ccc(-c4cnco4)cc3)nc(N(CCO)c3ccccc3)c2C1 [Example 23, Methyl 4-((2-hydroxyethyl)(phenyl)amino)-2-(4-(oxazol-5-yl)phenylamino)-7,8-dihydropyrido[4,3-d]pyrimidine-6(5H)-carboxylate] | 6.31 |
| COc1cccc(Cc2nc(Nc3ccc(-n4ccnc4C)cc3)nc3c2CN(C)CC3)c1 [Example 53, 4-(3-Methoxybenzyl)-6-methyl-N-(4-(2-methyl-1H-imidazol-1-yl)phenyl)-5,6,7,8-tetrahydropyrido[4,3-d]pyrimidin-2-amine] | 0.316 |
| Cc1nccn1-c1ccc(Nc2nc3c(c(CC4CCOCC4)n2)CN(CCO)CC3)cc1 [Example 62, 2-(2-(4-(2-Methyl-1H-imidazol-1-yl)phenylamino)-4-((tetrahydro-2H-pyran-4-yl)methyl)-7,8-dihydropyrido[4,3-d]pyrimidin-6(5H)-yl)ethanol] | 10 |
| COc1cccc(Cc2nc(Nc3ccc(-n4cnc(C)c4)c(OC)c3)nc3c2COCC3)c1 [Example 100, N-(3-Methoxy-4-(4-methyl-1H-imidazol-1-yl)phenyl)-4-(3-methoxybenzyl)-7,8-dihydro-5H-pyrano[4,3-d]pyrimidin-2-amine] | 0.1 |
| CC(=O)N1CCc2nc(Nc3ccc(-c4cnco4)cc3)nc(N3c4ccccc4C[C@@H]3CO)c2C1 [Example 37] | 10 |
| COc1cc(Nc2nc3c(c(CCN4CCCC4=O)n2)COCC3)ccc1-n1cnc(C)c1 [Example 110, 1-(2-(2-(3-Methoxy-4-(4-methyl-1H-imidazol-1-yl)phenylamino)-7,8-dihydro-5H-pyrano[4,3-d]pyrimidin-4-yl)ethyl)pyrrolidin-2-one] | 2.51 |
| CN1CCc2nc(Nc3ccc(-c4cnco4)cc3)nc(Nc3ccccc3)c2C1 [Example 4, 6-Methyl-N2-(4-(oxazol-5-yl)phenyl)-N4-phenyl-5,6,7,8-tetrahydropyrido[4,3-d]pyrimidine-2,4-diamine] | 0.316 |
| Cc1nccn1-c1ccc(Nc2nc3c(c(N4c5ccccc5C[C@@H]4CO)n2)CN(C)CC3)cc1 [Example 13, (R)-(1-(6-Methyl-2-(4-(2-methyl-1H-imidazol-1-yl)phenylamino)-5,6,7,8-tetrahydropyrido[4,3-d]pyrimidin-4-yl)indolin-2-yl)methanol] | 3.16 |
| COc1cc(Nc2nc3c(c(Nc4ccccc4)n2)CN(CCO)CC3)ccc1-n1cnc(C)c1 [Example 8, 2-(2-(3-Methoxy-4-(4-methyl-1H-imidazol-1-yl)phenylamino)-4-(phenylamino)-7,8-dihydropyrido[4,3-d]pyrimidin-6(5H)-yl)ethanol] | 0.0794 |
| Cc1cc(C(C)c2ccccc2)nc(Nc2ccc(-n3ccnc3C)cc2)n1 (stereo not drawn) [Example 87, 4-Methyl-N-(4-(2-methyl-1H-imidazol-1-yl)phenyl)-6-(1-phenylethyl)pyrimidin-2-amine] | 0.316 |
| CC(=O)N1CCc2nc(Nc3ccc(-n4ccnc4C)cc3)nc(CCc3cccc(F)c3)c2C1 [Example 60, 1-(4-(3-Fluorophenethyl)-2-(4-(2-methyl-1H-imidazol-1-yl)phenylamino)-7,8-dihydropyrido[4,3-d]pyrimidin-6(5H)-yl)ethanone] | 0.501 |
| Cc1nccn1-c1ccc(Nc2nc3c(c(Cc4ccccc4)n2)COCC3)cc1 [Example 45, 4-Benzyl-N-(4-(2-methyl-1H-imidazol-1-yl)phenyl)-7,8-dihydro-5H-pyrano[4,3-d]pyrimidin-2-amine] | 0.631 |

Other lines, results leading:

| IC50 [µM] | SMILES |
| --- | --- |
| 0.316 | Cc1nccn1-c1ccc(Nc2nc3c(c(Cc4ccccc4F)n2)CN(C)CC3)cc1 [Example 52, 4-(2-Fluorobenzyl)-6-methyl-N-(4-(2-methyl-1H-imidazol-1-yl)phenyl)-5,6,7,8-tetrahydropyrido[4,3-d]pyrimidin-2-amine] |
| 0.0794 | Cc1nccn1-c1ccc(Nc2nc(CCC3CCCCC3)c3c(n2)CCN(CCO)C3)cc1 [Example 47, 2-(4-(2-Cyclohexylethyl)-2-(4-(2-methyl-1H-imidazol-1-yl)phenylamino)-7,8-dihydropyrido[4,3-d]pyrimidin-6(5H)-yl)ethanol] |
| 1.58 | Cc1nccn1-c1ccc(Nc2nc3c(c(Cc4ccccc4)n2)C[S+]([O-])CC3)cc1 (stereo not drawn) [Example 114, 4-Benzyl-N-[4-(2-methyl-1H-imidazol-1-yl)phenyl]-7,8-dihydro-5H-thiopyrano[4,3-d]pyrimidin-2-amine 6-oxide] |
| 0.794 | CC(=O)N1CCc2nc(Nc3ccc(-c4cnco4)cc3)nc(N(CCO)Cc3ccccc3)c2C1 [Example 32, 1-(4-(Benzyl(2-hydroxyethyl)amino)-2-(4-(oxazol-5-yl)phenylamino)-7,8-dihydropyrido[4,3-d]pyrimidin-6(5H)-yl)ethanone] |
| 0.0631 | COc1cc(Nc2nc3c(c(Cc4ccccc4)n2)COCC3)ccc1-n1cnc(C)c1 [Example 43, 4-Benzyl-N-(3-methoxy-4-(4-methyl-1H-imidazol-1-yl)phenyl)-7,8-dihydro-5H-pyrano[4,3-d]pyrimidin-2-amine] |
| 0.398 | CC(=O)N1CCc2nc(Nc3ccc(-c4cnco4)cc3)nc(N(C)C3CCCCC3)c2C1 [Example 88, 1-(4-(Cyclohexyl(methyl)amino)-2-(4-(oxazol-5-yl)phenylamino)-7,8-dihydropyrido[4,3-d]pyrimidin-6(5H)-yl)ethanone] |
| 0.794 | O=C(CO)N1CCc2nc(Nc3ccc(-c4cnco4)cc3)nc(N(CCO)c3ccccc3)c2C1 [Example 19, 2-Hydroxy-1-(4-((2-hydroxyethyl)(phenyl)amino)-2-(4-(oxazol-5-yl)phenylamino)-7,8-dihydropyrido[4,3-d]pyrimidin-6(5H)-yl)ethanone] |
| 0.398 | CCS(=O)(=O)N1CCc2nc(Nc3ccc(-c4cnco4)cc3)nc(N(CCO)c3ccccc3)c2C1 [Example 22, 2-((6-(Ethylsulfonyl)-2-(4-(oxazol-5-yl)phenylamino)-5,6,7,8-tetrahydropyrido[4,3-d]pyrimidin-4-yl)(phenyl)amino)ethanol] |
| 5.01 | CC(=O)N1CCc2nc(Nc3ccc(-c4cnco4)cc3)nc(N(C)Cc3cccnc3)c2C1 [Example 36, 1-(4-(Methyl(pyridin-3-ylmethyl)amino)-2-(4-(oxazol-5-yl)phenylamino)-7,8-dihydropyrido[4,3-d]pyrimidin-6(5H)-yl)ethanone] |
| 0.1 | COc1cc(Nc2nc3c(c(C(C)(C)O)n2)COCC3)ccc1-n1cnc(C)c1 [Example 103, 2-(2-(3-Methoxy-4-(4-methyl-1H-imidazol-1-yl)phenylamino)-7,8-dihydro-5H-pyrano[4,3-d]pyrimidin-4-yl)propan-2-ol] |
| 0.316 | Cc1nccn1-c1ccc(Nc2nc3c(c(Cc4ccc(F)cc4)n2)CC(C(F)(F)F)CC3)cc1 (stereo not drawn) [Example 99, 4-(4-Fluorobenzyl)-N-(4-(2-methyl-1H-imidazol-1-yl)phenyl)-6-(trifluoromethyl)-5,6,7,8-tetrahydroquinazolin-2-amine] |
| 0.158 | CN1CCc2nc(Nc3ccc(-c4cnco4)cc3)nc(NC[C@H]3CCCO3)c2C1 [Example 84, (R)-6-Methyl-N2-(4-(oxazol-5-yl)phenyl)-N4-((tetrahydrofuran-2-yl)methyl)-5,6,7,8-tetrahydropyrido[4,3-d]pyrimidine-2,4-diamine] |
| 0.631 | CC(=O)N1CCc2nc(Nc3ccc(-c4cnco4)cc3)nc(N3CCc4ccccc43)c2C1 [Example 90, 1-(4-(Indolin-1-yl)-2-(4-(oxazol-5-yl)phenylamino)-7,8-dihydropyrido[4,3-d]pyrimidin-6(5H)-yl)ethanone] |
| 0.794 | CC(=O)N1CCc2nc(Nc3ccc(-c4cnco4)cc3)nc(N(CCO)c3ccccc3)c2C1 [Example 28, 1-(4-((2-Hydroxyethyl)(phenyl)amino)-2-(4-(oxazol-5-yl)phenylamino)-7,8-dihydropyrido[4,3-d]pyrimidin-6(5H)-yl)ethanone] |
| 0.398 | CN1CCc2nc(Nc3ccc(-c4cnn(C)c4)cc3)nc(N(CCO)c3ccccc3)c2C1 [Example 38, 2-((6-Methyl-2-(4-(1-methyl-1H-pyrazol-4-yl)phenylamino)-5,6,7,8-tetrahydropyrido[4,3-d]pyrimidin-4-yl)(phenyl)amino)ethanol] |
| 0.1 | COc1cc(Nc2nc3c(c(Nc4ccccc4)n2)CNCC3)ccc1-n1cnc(C)c1 [Example 7, N2-(3-Methoxy-4-(4-methyl-1H-imidazol-1-yl)phenyl)-N4-phenyl-5,6,7,8-tetrahydropyrido[4,3-d]pyrimidine-2,4-diamine] |
| 0.2 | Cc1nccn1-c1ccc(Nc2nc3c(c(Cc4ccccc4)n2)CN(CCO)CC3)cc1 [Example 41, 2-(4-Benzyl-2-(4-(2-methyl-1H-imidazol-1-yl)phenylamino)-7,8-dihydropyrido[4,3-d]pyrimidin-6(5H)-yl)ethanol] |
